Experiments:
Type in all cases: in vivo
[1] = tested on: umbrella sedge (Cyperus difformis); test: Test B flooded paddy test; details: for Plant response rating, Sedge, Umbrella: Flood (flooded paddy test), 13 to 15 days
How it was run: (§1)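 Greenhouse-held for 13 to 15 days, treated pots were compared visually with controls and scored 0–100 (0, no effect). Treatment had been made into paddy water kept at 3 cm above the soil, with plants at the 2-leaf stage.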

[2] = tested on: barnyardgrass (Echinochloa crus-galli); test: Test B flooded paddy test; details: for Plant response rating, Barnyardgrass: Flood (flooded paddy test), 13 to 15 days
How it was run: as §1

rice (Oryza sativa) = test: Test B flooded paddy test; details: for Plant response rating, Rice: Flood (flooded paddy test), 13 to 15 days
How it was run: as §1

[3] = tested on: ducksalad (Heteranthera limosa); test: Test B flooded paddy test; details: for Plant response rating, Ducksalad: Flood (flooded paddy test), 13 to 15 days
How it was run: as §1

wild oat (Avena fatua) = test: Test B pre-/postemergence plant response
How it was run: (§2)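 Plants treated either at seeding (loam/sand soil) or postemergence at 2 to 18 cm height, using a surfactant-containing non-phytotoxic solvent formulation. Evaluation was visual after 13 to 15 days, 0 to 100 scale relative to controls.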

[4] = tested on: cocklebur (Xanthium strumarium); test: Test B pre-/postemergence plant response
How it was run: as §2

soybean (Glycine max) = test: Test B pre-/postemergence plant response
How it was run: as §2

[5] = tested on: bermudagrass (Cynodon dactylon); test: Test B pre-/postemergence plant response
How it was run: as §2

[6] = tested on: green foxtail (Setaria viridis); test: Test B pre-/postemergence plant response
How it was run: as §2

[7] = tested on: giant foxtail (Setaria faberii); test: Test B pre-/postemergence plant response
How it was run: as §2

[8] = tested on: ragweed (common ragweed, Ambrosia elatior); test: Test B pre-/postemergence plant response
How it was run: as §2

corn (Zea mays) = test: Test B pre-/postemergence plant response
How it was run: as §2

[9] = tested on: lambsquarters (Chenopodium album); test: Test B pre-/postemergence plant response
How it was run: as §2

kochia (Kochia scoparia) = test: Test B pre-/postemergence plant response
How it was run: as §2

[10] = tested on: johnsongrass (Sorghum halepense); test: Test B pre-/postemergence plant response
How it was run: as §2

[11] = tested on: pigweed (Amaranthus retroflexus); test: Test B pre-/postemergence plant response
How it was run: as §2

[12] = 250 g ai/ha, flooded paddy test, visual rating on 0 to 100 scale (0 no effect, 100 complete control) after 13 to 15 days
[13] = 31 g ai/ha, scale of 0 to 100 where 0 is no effect and 100 is complete control
[14] = 62 g ai/ha, scale 0 to 100, 0 is no effect, 100 is complete control
[15] = 125 g ai/ha, scale 0 to 100, 0 is no effect, 100 is complete control
[16] = 250 g ai/ha, Preemergence, 0 to 100 scale
[17] = Postemergence, 31 g ai/ha, scale 0 to 100 (0 no effect, 100 complete control)
[18] = Postemergence, 62 g ai/ha, scale 0 (no effect) to 100 (complete control), 13 to 15 days
[19] = Postemergence, 125 g ai/ha, visual rating after 13 to 15 days, scale 0 (no effect) to 100 (complete control)
[20] = Postemergence, 250 g ai/ha, scale 0 to 100
[21] = Preemergence, 31 g ai/ha, scale 0 to 100 (0 no effect, 100 complete control)
[22] = Preemergence, 62 g ai/ha, scale 0 to 100, 0 no effect, 100 complete control
[23] = Preemergence, 125 g ai/ha, 0 to 100 scale

With “5-[(1-ethyl-5-hydroxy-1H-pyrazol-4-yl)carbonyl]-2-phenyl-3-(phenylmethyl)-4(3H)-pyrimidinone [Compound 20]” the “Plant response rating, Flood, Sedge, Umbrella” value [1, 12] was 60, the “Plant response rating, Sedge, Umbrella” value [1, 13] was 40 and the “Plant response rating, Sedge, Umbrella” value [1, 14] was 50. For the same substance, the “Plant response rating, Sedge, Umbrella” value [1, 15] was 60, the “Plant response rating, Flood, Barnyardgrass” value [2, 12] was 0 and the “Plant response rating, Barnyardgrass” value [2, 13] was 0. The “Plant response rating, Barnyardgrass” value [2, 14] was 0, the “Plant response rating, Barnyardgrass” value [2, 15] was 0 and the “Plant response rating, Flood, Rice” value (rice (Oryza sativa); [12]) was 0. For the same substance, the “Plant response rating, Rice” value (rice (Oryza sativa); [13]) was 0, the “Plant response rating, Rice” value (rice (Oryza sativa); [14]) was 0 and the “Plant response rating, Rice” value (rice (Oryza sativa); [15]) was 0. The “Plant response rating, Flood, Ducksalad” value [3, 12] was 70, the “Plant response rating, Ducksalad” value [3, 13] was 0 and the “Plant response rating, Ducksalad” value [3, 14] was 0. For the same substance, the “Plant response rating, Ducksalad” value [3, 15] was 70, the “Plant response rating, Oat, Wild” value (wild oat (Avena fatua); [16]) was 0 and the “Plant response rating, Oat, Wild” value (wild oat (Avena fatua); [17]) was 0. The “Plant response rating, Oat, Wild” value (wild oat (Avena fatua); [18]) was 0, the “Plant response rating, Oat, Wild” value (wild oat (Avena fatua); [19]) was 5 and the “Oat, Wild plant response rating” value (wild oat (Avena fatua); [20]) was 50. For the same substance, the “Plant response rating, Oat, Wild” value (wild oat (Avena fatua); [21]) was 0, the “Plant response rating, Oat, Wild” value (wild oat (Avena fatua); [22]) was 0 and the “Oat, Wild plant response rating” value (wild oat (Avena fatua); [23]) was 0. For the same substance, the “Plant response rating, Cocklebur” value [4, 16] was 100, the “Plant response rating, Cocklebur” value [4, 17] was 65 and the “Plant response rating, Cocklebur” value [4, 18] was 80. The “Plant response rating, Cocklebur” value [4, 19] was 85, the “Cocklebur plant response rating” value [4, 20] was 100 and the “Plant response rating, Cocklebur” value [4, 21] was 10. The “Plant response rating, Cocklebur” value [4, 22] was 10, the “Cocklebur plant response rating” value [4, 23] was 70 and the “Plant response rating, Soybean” value (soybean (Glycine max); [16]) was 50. For the same substance, the “Plant response rating, Soybean” value (soybean (Glycine max); [17]) was 65, the “Plant response rating, Soybean” value (soybean (Glycine max); [18]) was 70 and the “Plant response rating, Soybean” value (soybean (Glycine max); [19]) was 80. For the same substance, the “Soybean plant response rating” value (soybean (Glycine max); [20]) was 90, the “Plant response rating, Soybean” value (soybean (Glycine max); [21]) was 0 and the “Plant response rating, Soybean” value (soybean (Glycine max); [22]) was 30. For the same substance, the “Soybean plant response rating” value (soybean (Glycine max); [23]) was 35, the “Plant response rating, Bermudagrass” value [5, 16] was 90 and the “Plant response rating, Bermudagrass” value [5, 17] was 15. For the same substance, the “Plant response rating, Bermudagrass” value [5, 18] was 25, the “Plant response rating, Bermudagrass” value ([5]; Postemergence, 125 g ai/ha, scale 0 to 100 (0 no effect, 100 complete control), 13 to 15 days) was 70 and the “Bermudagrass plant response rating” value [5, 20] was 80. For the same substance, the “Plant response rating, Bermudagrass” value [5, 21] was 10, the “Plant response rating, Bermudagrass” value [5, 22] was 70 and the “Bermudagrass plant response rating” value [5, 23] was 80. The “Plant response rating, Foxtail, Green” value [6, 16] was 0, the “Plant response rating, Foxtail, Green” value [6, 17] was 5 and the “Plant response rating, Foxtail, Green” value [6, 18] was 10. The “Plant response rating, Foxtail, Green” value [6, 19] was 35, the “Foxtail, Green plant response rating” value [6, 20] was 50 and the “Plant response rating, Foxtail, Green” value [6, 21] was 0. The “Plant response rating, Foxtail, Green” value [6, 22] was 0, the “Foxtail, Green plant response rating” value [6, 23] was 0 and the “Plant response rating, Foxtail, Giant” value [7, 16] was 0. The “Plant response rating, Foxtail, Giant” value [7, 17] was 15, the “Plant response rating, Foxtail, Giant” value [7, 18] was 45 and the “Plant response rating, Foxtail, Giant” value [7, 19] was 60. The “Foxtail, Giant plant response rating” value [7, 20] was 65, the “Plant response rating, Foxtail, Giant” value [7, 21] was 0 and the “Plant response rating, Foxtail, Giant” value [7, 22] was 0. For the same substance, the “Foxtail, Giant plant response rating” value [7, 23] was 0, the “Plant response rating, Ragweed” value [8, 16] was 90 and the “Plant response rating, Ragweed” value [8, 17] was 80. For the same substance, the “Plant response rating, Ragweed” value [8, 18] was 85, the “Plant response rating, Ragweed” value [8, 19] was 98 and the “Ragweed plant response rating” value [8, 20] was 100. The “Plant response rating, Ragweed” value [8, 21] was 65, the “Plant response rating, Ragweed” value [8, 22] was 65 and the “Ragweed plant response rating” value [8, 23] was 90. For the same substance, the “Plant response rating, Corn” value (corn (Zea mays); [16]) was 5, the “Plant response rating, Corn” value (corn (Zea mays); [17]) was 0 and the “Plant response rating, Corn” value (corn (Zea mays); [18]) was 0. The “Plant response rating, Corn” value (corn (Zea mays); [19]) was 10, the “Corn plant response rating” value (corn (Zea mays); [20]) was 15 and the “Plant response rating, Corn” value (corn (Zea mays); [21]) was 0. The “Plant response rating, Corn” value (corn (Zea mays); [22]) was 0, the “Corn plant response rating” value (corn (Zea mays); [23]) was 0 and the “Plant response rating, Lambsquarters” value [9, 16] was 100. The “Plant response rating, Lambsquarters” value [9, 17] was 85, the “Plant response rating, Lambsquarters” value [9, 18] was 95 and the “Plant response rating, Lambsquarters” value [9, 19] was 98. For the same substance, the “Lambsquarters plant response rating” value [9, 20] was 100, the “Plant response rating, Lambsquarters” value [9, 21] was 100 and the “Lambsquarters plant response rating” value [9, 23] was 100. For the same substance, the “Plant response rating, Kochia” value (kochia (Kochia scoparia); [16]) was 100, the “Plant response rating, Kochia” value (kochia (Kochia scoparia); [17]) was 65 and the “Plant response rating, Kochia” value (kochia (Kochia scoparia); [18]) was 80. For the same substance, the “Plant response rating, Kochia” value (kochia (Kochia scoparia); [19]) was 85, the “Kochia plant response rating” value (kochia (Kochia scoparia); [20]) was 95 and the “Plant response rating, Kochia” value (kochia (Kochia scoparia); [21]) was 98. The “Kochia plant response rating” value (kochia (Kochia scoparia); [23]) was 100, the “Plant response rating, Johnsongrass” value [10, 16] was 10 and the “Plant response rating, Johnsongrass” value [10, 17] was 0. The “Plant response rating, Johnsongrass” value [10, 18] was 0, the “Johnsongrass plant response rating” value [10, 20] was 15 and the “Plant response rating, Johnsongrass” value [10, 21] was 0. For the same substance, the “Plant response rating, Johnsongrass” value [10, 22] was 0, the “Johnsongrass plant response rating” value [10, 23] was 0 and the “Plant response rating, Pigweed” value [11, 16] was 95. The “Plant response rating, Pigweed” value [11, 17] was 75, the “Plant response rating, Pigweed” value [11, 18] was 90 and the “Plant response rating, Pigweed” value [11, 19] was 100. The “Pigweed plant response rating” value [11, 20] was 100, the “Plant response rating, Pigweed” value [11, 21] was 85 and the “Pigweed plant response rating” value [11, 23] was 90.

From patent publication US8952024B2, “Herbicidal pyrimidone derivatives” (E I du Pont de Nemours and Company, priority 2009, dated 2015)
